Experimental data published in ChEMBL document CHEMBL1201862, “PubChem BioAssay data set” (2004).
Active and inactive are the calls of the source.

Tests used:
[1] = inhibitors of firefly luciferase expression or activity, dose response, H4 neuroglioma cells, luminescence (AID 1990); type: functional, cell-based
[2] = system: INS1; test: beta cell apoptosis inhibitors, cytokine rescue, dose response, luminescence, retest (AID 449756); type: functional, cell-based; details: ins1;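 further: cell death triggered by IL-1 beta plus TNF-alpha plus IFN-gamma mixture; protective hits raise ATP signal compared with cytokine alone wells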
[3] = inhibitors of SNCA 5'UTR-driven reporter translation, confirmation, H4 neuroglioma cells, luminescence (AID 1988); type: functional, cell-based
[4] = system: Streptococcus sp. 'group A'; test: growth inhibition of control SK(-) GAS strain, dose response, counter-screen for streptokinase expression inhibitor project, luminescence, kanamycin, BacTiterGlo, confirmation (AID 1900); type: functional, organism-based
[5] = cytotoxicity toward NIH3T3 fibroblasts, dose response, counter-screen, cell-based, ATP luminescence, mouse fibroblasts (AID 2010); type: functional;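 further: cells exposed to compound for about 90 hours before reading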
[6] = Luminescence Cell-Based Dose Response HTS to Identify Inhibitors of 5'UTR Stem-Loop Driven Prion Protein mRNA Translation in H4 Neuroglioblastoma Cells. [Related pubchem assays: 1827 (Project Summary), 1813 (Primary HTS)]; type: functional
[7] = inhibitors of intracellular T. cruzi replication, confirmation, NIH3T3 host cells, beta-gal luminescence (AID 2044); type: functional, cell-based;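 further: intracellular parasites grown in NIH/3T3 mouse fibroblasts as host cells; luminescent beta-galactosidase reporter signal from transgenic T. cruzi replicating inside host cells; inhibitors lower the luminescence signal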
[8] = system: Streptococcus; test: Group A Streptococcus viability loss, dose response, counter-screen for streptokinase expression inhibitor project, luminescence, BacTiterGlo (AID 1915); type: functional, organism-based;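 further: potency for reduction of bacterial viability or growth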
[9] = nonselective inhibitors of cellular cAMP signaling, dose response, counter-screen for MC4R biased antagonist project, cell-based, TR-FRET cAMP detection (AID 602305); type: functional;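 further: U2OS cells stimulated with forskolin near its EC80 as the cAMP inducer; potency is for inhibition of forskolin-stimulated cAMP signaling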
[10] = HeLa cell cytotoxicity, dose response, cytotoxicity control for MgcRacGAP inhibitor project (AID 624300); type: functional
[11] = molecular target: Paired box protein Pax-8 (Homo sapiens, UniProt Q06710); test: inhibitors of PAX8-driven TPO luciferase reporter, dose response, RMG-I cells, cherry-pick (AID 687027); type: functional, cell-based;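 further: luciferase reporter driven by Pax8 target thyroperoxidase promoter measured by SteadyGlo luminescence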
Chain of Paired box protein Pax-8 (Q06710 whole entry): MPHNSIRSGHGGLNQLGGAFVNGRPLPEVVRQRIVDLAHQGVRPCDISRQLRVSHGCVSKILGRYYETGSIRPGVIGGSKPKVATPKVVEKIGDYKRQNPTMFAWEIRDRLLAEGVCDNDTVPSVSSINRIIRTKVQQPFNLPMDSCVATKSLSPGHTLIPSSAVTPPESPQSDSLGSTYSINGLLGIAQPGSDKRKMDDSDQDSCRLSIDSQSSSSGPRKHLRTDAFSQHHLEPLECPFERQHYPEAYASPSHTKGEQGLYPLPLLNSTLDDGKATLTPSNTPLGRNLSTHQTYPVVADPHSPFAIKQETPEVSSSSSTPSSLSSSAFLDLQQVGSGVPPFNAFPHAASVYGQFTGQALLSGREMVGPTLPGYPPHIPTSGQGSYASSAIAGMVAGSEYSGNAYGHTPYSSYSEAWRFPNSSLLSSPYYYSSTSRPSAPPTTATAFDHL

[12] = cytotoxicity in OVCAR8 ovarian cancer cells, dose response, PAX8 project, cell-based, plate reader, dry powder samples (AID 743197); type: functional; details: OVCAR-8
[13] = NIH:OVCAR-3 ovarian cancer cell cytotoxicity, dose response, PAX8 inhibitor project, plate reader, dry powder samples (AID 743044); type: functional, cell-based
[14] = molecular target: T1, Fructose-bisphosphate aldolase (Mycobacterium tuberculosis, UniProt P9WQA3); test: Fluorescence-based biochemical high throughput dose response assay for inhibitors of the fructose-bisphosphate aldolase (FBA) of M. tuberculosis.; type: functional
T1 sequence (P9WQA3 whole entry): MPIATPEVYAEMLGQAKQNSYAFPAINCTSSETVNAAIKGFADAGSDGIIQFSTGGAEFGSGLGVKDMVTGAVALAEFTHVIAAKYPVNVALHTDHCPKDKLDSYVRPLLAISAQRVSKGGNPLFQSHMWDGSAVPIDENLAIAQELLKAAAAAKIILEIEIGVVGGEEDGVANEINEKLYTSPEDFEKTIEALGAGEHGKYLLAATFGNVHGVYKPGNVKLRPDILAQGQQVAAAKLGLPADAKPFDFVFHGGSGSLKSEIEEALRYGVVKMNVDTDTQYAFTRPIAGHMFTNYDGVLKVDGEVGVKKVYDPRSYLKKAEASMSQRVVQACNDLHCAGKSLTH

[15] = molecular target: T2, DNA repair and recombination protein RAD54-like (Homo sapiens, UniProt Q92698); test: inhibitors of human RAD54 branch migration, confirmation, biochemical, fluorescence, cherry-picked samples, dose series (AID 651657); type: functional
T2 sequence (Q92698 whole entry): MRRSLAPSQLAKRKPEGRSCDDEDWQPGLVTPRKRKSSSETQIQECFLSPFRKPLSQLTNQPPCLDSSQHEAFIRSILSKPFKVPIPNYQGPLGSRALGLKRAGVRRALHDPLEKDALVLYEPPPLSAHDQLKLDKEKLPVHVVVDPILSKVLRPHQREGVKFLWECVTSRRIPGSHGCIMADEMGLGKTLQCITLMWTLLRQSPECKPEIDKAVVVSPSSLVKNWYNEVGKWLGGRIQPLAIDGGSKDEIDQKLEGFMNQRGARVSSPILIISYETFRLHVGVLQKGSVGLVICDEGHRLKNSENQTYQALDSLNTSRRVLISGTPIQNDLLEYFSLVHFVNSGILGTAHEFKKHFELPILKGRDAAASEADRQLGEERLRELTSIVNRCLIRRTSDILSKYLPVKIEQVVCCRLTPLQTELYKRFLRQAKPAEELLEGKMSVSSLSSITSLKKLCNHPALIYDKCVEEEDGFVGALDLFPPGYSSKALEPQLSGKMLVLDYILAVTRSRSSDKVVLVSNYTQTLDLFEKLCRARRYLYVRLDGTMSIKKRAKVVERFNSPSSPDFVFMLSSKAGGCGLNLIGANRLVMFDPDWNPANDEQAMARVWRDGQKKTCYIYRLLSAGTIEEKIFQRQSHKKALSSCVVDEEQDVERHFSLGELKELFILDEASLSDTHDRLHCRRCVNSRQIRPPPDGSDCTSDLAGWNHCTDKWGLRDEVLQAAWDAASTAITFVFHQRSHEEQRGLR

[16] = HepG2 cell cytotoxicity, dose response, cytotoxicity control, cherry-picked samples (AID 1159577); type: functional, cell-based
[17] = P. falciparum Dd2 growth inhibitors, dose response, SYBR Green, cherry-picked samples (AID 1159567); type: functional, cell-based
[18] = molecular target: T3, DNA repair protein RAD52 homolog (Homo sapiens, UniProt P43351); type: functional, biochemical
T3 sequence (P43351 whole entry): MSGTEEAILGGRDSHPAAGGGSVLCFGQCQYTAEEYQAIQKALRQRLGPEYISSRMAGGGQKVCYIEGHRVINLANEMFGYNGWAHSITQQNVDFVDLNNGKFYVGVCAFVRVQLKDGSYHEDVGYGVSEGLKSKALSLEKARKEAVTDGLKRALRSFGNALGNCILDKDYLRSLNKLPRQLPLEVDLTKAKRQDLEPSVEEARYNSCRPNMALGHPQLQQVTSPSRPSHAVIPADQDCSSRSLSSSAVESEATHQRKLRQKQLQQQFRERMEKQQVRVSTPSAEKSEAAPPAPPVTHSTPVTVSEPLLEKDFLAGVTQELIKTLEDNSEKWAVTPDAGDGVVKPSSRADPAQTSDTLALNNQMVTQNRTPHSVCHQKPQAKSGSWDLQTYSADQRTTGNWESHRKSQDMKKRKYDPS

[19] = intracellular Trypanosoma cruzi inhibitors in host cells – cell-based, plate reader, cherry-pick samples, set 3, dose response (AID 651818); type: functional;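 further: compounds incubated with infected cells for about four days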
[20] = HEK293T cytotoxicity, dose response, cytotoxicity control for miR-122 modulator project, cell-based, inhibitor set, cherry-pick, set 2 (AID 720697); type: functional
[21] = HEK293T cytotoxicity, dose response, cytotoxicity control for miR-122 modulator project, cell-based, activator set, cherry-pick (AID 720690); type: functional;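 further: HEK293T human cells scored for general mammalian cytotoxicity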
[22] = molecular target: T4, Long-chain-fatty-acid--AMP ligase FadD28 (Mycobacterium tuberculosis, UniProt P9WQ59); test: Fluorescence polarization aasay to screen for inhibitors that compete for the binding of FadD28 to a bisubstrate Measured in Biochemical System Using Plate Reader - 2147-01_Inhibitor_Dose_CherryPick_Activity.; type: functional, Mycobacterium tuberculosis H37Rv
T4 sequence (P9WQ59 whole entry): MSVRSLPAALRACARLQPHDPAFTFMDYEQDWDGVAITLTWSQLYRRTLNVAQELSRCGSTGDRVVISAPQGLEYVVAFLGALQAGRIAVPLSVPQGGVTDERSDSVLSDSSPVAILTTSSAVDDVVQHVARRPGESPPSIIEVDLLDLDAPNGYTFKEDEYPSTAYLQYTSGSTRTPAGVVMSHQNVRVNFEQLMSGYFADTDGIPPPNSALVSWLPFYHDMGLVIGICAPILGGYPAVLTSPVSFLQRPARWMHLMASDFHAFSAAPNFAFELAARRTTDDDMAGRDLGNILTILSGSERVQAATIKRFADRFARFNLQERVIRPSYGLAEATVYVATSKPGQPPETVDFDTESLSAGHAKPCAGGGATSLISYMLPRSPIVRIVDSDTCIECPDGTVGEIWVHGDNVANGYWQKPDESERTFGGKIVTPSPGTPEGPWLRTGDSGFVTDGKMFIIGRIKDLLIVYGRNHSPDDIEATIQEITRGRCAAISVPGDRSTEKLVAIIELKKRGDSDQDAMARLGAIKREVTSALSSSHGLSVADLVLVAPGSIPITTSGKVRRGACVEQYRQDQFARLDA

[23] = human group III sPLA2 inhibitors, dose response, biochemical, QFRET, IC50 (AID 743457);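 further: green fluorescence rise as the enzyme cleaves BODIPY PC-A2 in liposomes; potency for inhibition of the enzyme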
[24] = molecular target: T5, Corticotropin-releasing factor receptor 2/Corticotropin-releasing factor-binding protein (Homo sapiens, UniProt P24387+Q13324); test: activators of CRF receptor 2 with binding protein – uHTS hits, confirmation (AID 602473); type: functional; details: read-out: EC50_Mean
T5 sequence (Q13324 whole entry): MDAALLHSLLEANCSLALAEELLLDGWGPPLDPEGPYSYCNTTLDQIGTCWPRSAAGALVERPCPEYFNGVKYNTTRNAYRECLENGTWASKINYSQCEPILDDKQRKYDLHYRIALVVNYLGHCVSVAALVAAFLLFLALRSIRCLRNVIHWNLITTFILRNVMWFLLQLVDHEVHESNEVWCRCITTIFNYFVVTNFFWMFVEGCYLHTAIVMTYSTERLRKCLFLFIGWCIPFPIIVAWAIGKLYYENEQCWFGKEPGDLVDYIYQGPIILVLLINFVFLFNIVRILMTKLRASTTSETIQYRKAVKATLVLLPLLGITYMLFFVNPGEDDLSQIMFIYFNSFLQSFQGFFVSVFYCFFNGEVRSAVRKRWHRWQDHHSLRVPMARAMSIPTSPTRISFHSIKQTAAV
T5 sequence (P24387 whole entry): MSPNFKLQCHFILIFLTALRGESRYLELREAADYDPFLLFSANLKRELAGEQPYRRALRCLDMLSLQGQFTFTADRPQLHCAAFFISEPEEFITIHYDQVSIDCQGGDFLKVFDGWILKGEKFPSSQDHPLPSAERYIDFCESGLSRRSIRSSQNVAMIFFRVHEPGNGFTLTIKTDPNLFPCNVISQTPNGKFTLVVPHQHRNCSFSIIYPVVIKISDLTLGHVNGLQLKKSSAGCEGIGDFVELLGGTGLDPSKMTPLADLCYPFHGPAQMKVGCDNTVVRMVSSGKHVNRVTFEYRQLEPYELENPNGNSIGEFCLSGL

With `N=C(NCCCCCCNC(=N)NC(=N)Nc1ccc(Cl)cc1)NC(=N)Nc1ccc(Cl)cc1` the EC50 [1] was 8.64 µM (active), the AC50 [2] was 4.27 µM (active) and the EC50 [3] was 9.88 µM (active). For the same compound, the EC50 [4] was 0.517 µM (active), the EC50 [5] was 7.82 µM (active) and the EC50 [6] was 18.2 µM (active). The EC50 [7] was 0.332 µM (active), the EC50 [8] was 2.09 µM (active) and the IC50 [9] was 61.2 µM (inactive). The CC50 [10] was 37.9 µM (active).

In the case of `Cc1noc(C)c1S(=O)(=O)Nc1ccc2c(c1)C(=O)N([C@H](C)CO)C[C@@H](C)[C@H](CN(C)C(=O)Nc1ccc(C(F)(F)F)cc1)OCCCC[C@@H](C)O2`, the AC50 [11] is reported as 7.41 µM (active), the AC50 [12] is reported as 38.2 µM (active) and the AC50 [13] is reported as 26.7 µM (active).

In the case of `CCCCN=C(S)N(CCN(CC)CC)Cc1cc2cc3c(cc2nc1O)OCO3`, the IC50 [14] is reported as 2.44 µM (active).

For `COc1ccc(Cl)c2sc(N(CCN(C)C)C(=O)C3=COCCO3)nc12`, the AC50 [15] was 38 µM (active).

For `C[C@@H]1CN([C@@H](C)CO)C(=O)Cc2cc(NC(=O)Nc3ccc(C(F)(F)F)cc3)ccc2O[C@H]1CN(C)CC1CCCCC1`, the AC50 [16] was 10.4 µM (active) and the AC50 [17] was 1.35 µM (active).

With `Cc1nc2ccccc2c2oc(C(=O)NCCN3CCCCC3C)cc12` (stereo unspecified) the AC50 [15] was 35.2 µM (active).

In the case of `COc1ccc(-c2cc(NC=O)c3ncc(-c4cccc(C(=O)NCCN(C)C)c4)n3c2)cc1`, the AC50 [15] is reported as 9.93 µM (active) and the AC50 [18] is reported as 2.81 µM (active).

For `C[C@@H]1CN([C@@H](C)CO)C(=O)c2cc(NC(=O)Nc3ccc(C(F)(F)F)cc3)ccc2O[C@@H]1CN(C)CC1CCCCC1`, the AC50 [19] was 5.59 µM (active), the AC50 [20] was 4.35 µM (active) and the AC50 [21] was 19.1 µM (active).

For `CCCCCC1C(=O)N2C=C(c3ccccc3)c3ccccc3N2C1=O` (stereo unspecified) [CINTAZONE], the AC50 [22] was 67.3 µM (active).

For `CC(C)CC(=O)NC(=S)NNC(=O)c1cccc([N+](=O)[O-])c1`, the IC50 [23] was > 122 µM (inactive) and the EC50 [24] was > 53 µM (inactive).
